Results reported in patent publication US9359298B2, “Cajanine structure analogous compound, preparation method and use” (INSTITUTE OF MEDICINAL BIOTECHNOLOGY, CHINESE ACADEMY OF …, priority 2011, dated 2016).
≈ marks a conversion by molar mass, not a printed value. Like-named read-outs stand apart in the source and are kept apart here.

Tests used:
Format in all cases: cell-based
[1] = tested on: Influenza A virus (hanfang359/95); test: Determination of anti-influenza virus activity (CPE in MDCK cells); settings: for IC50: Influenza A virus, MDCK, 36 h; for anti-influenza virus activities compared with the lead compound cajanine: statement in words
[2] = tested on: Coxsackie virus B6; test: Coxsackie virus activity assay (CPE in Vero cells); settings: for IC50: Vero
[3] = tested on: HCV; test: Anti-hepatitis C virus (HCV) activity assay (HCV RNA in Huh7.5 cells); settings: for EC50: Hepatitis C virus, Huh7.5, 72 h, read-out: HCV EC50; for anti-HCV viral activity: statement in words
Method: Inoculate Huh7.5 cells into 96-well plates to a density of 3×10^4 cells/cm^2, culture for 24h, infect the cells with 45 IU/cell HCV supernatant, meanwhile, add drug solutions or solvent control for treatment.

[4] = tested on: HIV-1 III B virus; test: Anti-HIV activity assay (P24 antigen in MT-4 cells); settings: for IC50: Human immunodeficiency virus 1, MT4, 96 h, read-out: HIV IC50; for anti-HIV viral activity: statement in words
[5] = tested on: PC12 cells; test: Neuroprotective activity assay, serum-deprived injury to PC12 cells (MTT); settings: for viability at 10 µM: Rattus norvegicus, PC-12, 48 h, read-out: serum-deprived (surviving PC12 cells, MTT 570 nm); for protective effect on serum-deprived injury to PC12 cells: statement in words
Method: (§1) Discard the original culture media from confluent monolayers of PC12 cells (simulated neuronal cells), add DMEM complete medium with 5% FBS, 5% horse serum gently beat upon the cells with a pipette to completely disperse them, inoculate 100 μl cell suspension at a density of […] per well to 96 hole plates treated with poly-lysine (0.1 mg/ml) in advance, culture for 24h. Divide the experimenting cells into control group, model group and dosing groups. Add complete medium to the control group. Model groups includes rotenone group and serum-deprived group, add rotenone to the corresponding modules with a final concentration of 4 μM rotenone to take effect on the cells for 48 h, add serum-deprived groups with serum-free DMEM medium to take effect on the cells for 48 h. Dosing groups also includes two groups, one using rotenone module as model, another using serum-deprived module as model, and both add in 10 μM test compounds during modeling. 48h later, add 10 μl 5 mg/ml MTT, subsequently discard the supernatant 4h later and add in 150 μl DMSO, measure 570 nm absorbance to represent the numbers of surviving cells.

[6] = tested on: PC12 cells; test: Neuroprotective activity assay, rotenone injury to PC12 cells (MTT); settings: for viability at 10 µM: Rattus norvegicus, PC-12, 48 h, read-out: rotenone (surviving PC12 cells, MTT 570 nm); for protective effect on rotenone injury to PC12 cells: statement in words
Method: as §1

[7] = read-out: COX-B6 IC50, Vero cells, about 100TCID50, CPE, Reed-Muench
[8] = Huh7.5 cells, 72 h, HCV RNA by RT-PCR, Reed-Muench
[9] = MT-4 cells, HIV-1 III B 100TCID50, 96 h, P24 antigen
[10] = 10 μM test compound, 48 h, Control 100.0 ± 9.2, Model 69.3 ± 4.1
[11] = 10 μM test compound, 4 μM rotenone, 48 h, Control 100.0 ± 8.9, Model 73.2 ± 7.8

Compound | IC50 [1] | IC50 [2, 7] | EC50 [3, 8] | IC50 [4, 9] | viability at 10 µM [5, 10] | viability at 10 µM [6, 11] | other results
COc1cc(/C=C/c2ccc(O)cn2)c(C(=O)O)c(O)c1CC=C(C)C [Compound 1y] | 4.25 µg/mL (≈ 12 µM) | 5.84 µg/mL (≈ 16.4 µM) | 0.86 µg/mL (≈ 2.42 µM) | 0.63 µg/mL (≈ 1.77 µM) | 87.6 ± 1.6% | 89.7 ± 1.9% | anti-HCV viral activity [3]: stronger anti-HIV, HCV viral activities; anti-HIV viral activity [4]: stronger anti-HIV, HCV viral activities
COc1cc(/C=C/c2cccc(C)c2)cc(O)c1CC=C(C)C [Compound 10f, 2-isopentenyl-3-methoxy-5-[(E)-3′-methylstyryl]phenol] | 0.89 µg/mL (≈ 2.89 µM) | 1.26 µg/mL (≈ 4.09 µM) | 0.87 µg/mL (≈ 2.82 µM) | 0.46 µg/mL (≈ 1.49 µM) | 74.5 ± 6.5% | 76.5 ± 8% | anti-influenza virus activities compared with the lead compound cajanine [1]: significantly stronger than the lead compound cajanine
COC(=O)c1c(/C=C(\C)c2ccccc2)cc(OC)c(CC=C(C)C)c1O [Compound 8i, methyl 2-hydroxy-3-isopentenyl-4-methoxy-6-[(E)-2-phenylpropen-1-yl]-benzoate] | > 2.47 µg/mL | 6.89 µg/mL (≈ 18.8 µM) | 3.47 µg/mL (≈ 9.47 µM) | 3.8 µg/mL (≈ 10.4 µM) | 46.4 ± 16.6% | 69.4 ± 2.6% | –
COc1cc(/C=C/C=C/c2ccccc2)c(C(=O)O)c(O)c1CC=C(C)C [Compound 1m, 2-hydroxy-3-isopentenyl-4-methoxy-6-[(1′E,3′E)-phenylbutadien-1′,3′-yl]benzoic acid] | 6.17 µg/mL (≈ 16.9 µM) | > 2.06 µg/mL | – | 1.07 µg/mL (≈ 2.94 µM) | 21 ± 2.2% | 74.4 ± 4.4% | EC50 [3]: 6.17 µg/mL (≈ 16.9 µM)
COc1ccnc(/C=C/c2cc(O)c(CC=C(C)C)c(OC)c2)c1 [Compound 10z, 2-isopentenyl-3-methoxy-5-[(E)-2-(4-methoxypyrid-2-yl)ethenyl]phenol] | 0.32 µg/mL (≈ 0.983 µM) | 0.84 µg/mL (≈ 2.58 µM) | 1.19 µg/mL (≈ 3.66 µM) | 2.83 µg/mL (≈ 8.7 µM) | 84.6 ± 3.9% | 87 ± 5.1% | anti-influenza virus activities compared with the lead compound cajanine [1]: significantly stronger than the lead compound cajanine
COc1cc(/C=C/c2ccccc2)c(C(=O)NC(=N)N)c(O)c1CC=C(C)C [Compound 23b, N-amidino-2-hydroxy-3-isopentenyl-4-methoxy-6-[(E)-styryl]benzamide] | 0.13 µg/mL (≈ 0.343 µM) | 0.24 µg/mL (≈ 0.632 µM) | 0.53 µg/mL (≈ 1.4 µM) | 3.9 µg/mL (≈ 10.3 µM) | 79.8 ± 4.6% | 81.3 ± 5% | anti-influenza virus activities compared with the lead compound cajanine [1]: significantly stronger than the lead compound cajanine; anti-HCV viral activity [3]: stronger anti-HIV, HCV viral activities; anti-HIV viral activity [4]: stronger anti-HIV, HCV viral activities
CC/C=C/c1cc(O)c(CC=C(C)C)c(OC)c1 [Compound 10h, 2-isopentenyl-3-methoxy-5-[(E)-buten-1-yl]phenol] | 0.74 µg/mL (≈ 3 µM) | > 2.06 µg/mL | 0.74 µg/mL (≈ 3 µM) | 0.96 µg/mL (≈ 3.9 µM) | 65.8 ± 9.2% | 67.8 ± 8.5% | –
COC(=O)c1c(CCc2ccccc2)cc(OC)c(CC=C(C)C)c1O [Compound 36, methyl 2-hydroxy-3-isopentenyl-4-methoxy-6-phenethyl benzoate] | > 2.46 µg/mL | > 2.46 µg/mL | 3.86 µg/mL (≈ 10.9 µM) | 1.06 µg/mL (≈ 2.99 µM) | 41 ± 15.4% | 72.2 ± 12.2% | –
COc1cc(/C=C/c2ccccc2)c(C(=O)O)c(OC(=O)C(=O)O)c1CC=C(C)C [Compound 31b, 2-carboxyformyloxy-3-isopentenyl-4-methoxy-6-[(E)-styryl]benzoic acid] | 0.54 µg/mL (≈ 1.32 µM) | 1.21 µg/mL (≈ 2.95 µM) | 0.99 µg/mL (≈ 2.41 µM) | 2.8 µg/mL (≈ 6.82 µM) | 88.6 ± 2.6% | 80.5 ± 6.4% | anti-influenza virus activities compared with the lead compound cajanine [1]: significantly stronger than the lead compound cajanine; anti-HCV viral activity [3]: stronger anti-HIV, HCV viral activities; anti-HIV viral activity [4]: stronger anti-HIV, HCV viral activities
COc1cc(/C=C/c2cccs2)c(C(=O)O)c(O)c1CC=C(C)C [Compound 1j, 2-hydroxy-3-isopentenyl-4-methoxy-6-[(E)-2-(thien-2-yl)ethenyl]benzoic acid] | > 0.27 µg/mL | 2.13 µg/mL (≈ 6.18 µM) | 0.77 µg/mL (≈ 2.24 µM) | 1.02 µg/mL (≈ 2.96 µM) | 27.7 ± 6.3% | 59.8 ± 7.7% | anti-HCV viral activity [3]: stronger anti-HIV, HCV viral activities; anti-HIV viral activity [4]: stronger anti-HIV, HCV viral activities
COc1cc(/C=C/c2ccccc2)c(C(=O)O)c(OC(=N)N)c1CC=C(C)C [Compound 27b, 2-iso-ureido-3-isopentenyl-4-methoxy-6-[(E)-styryl]benzoic acid] | 2.14 µg/mL (≈ 5.63 µM) | 1.24 µg/mL (≈ 3.26 µM) | 1.83 µg/mL (≈ 4.81 µM) | 4.91 µg/mL (≈ 12.9 µM) | 91.5 ± 6.1% | 92.3 ± 2.6% | protective effect on serum-deprived injury to PC12 cells [5]: the strongest activities; protective effect on rotenone injury to PC12 cells [6]: the strongest activities
COc1cc(/C=C/c2cc(O)ccn2)cc(O)c1CC=C(C)C [10a′, 2-isopentenyl-3-methoxy-5-[(E)-2-(4-hydroxypyrid-2-yl)ethenyl]phenol] | 0.17 µg/mL (≈ 0.546 µM) | 0.41 µg/mL (≈ 1.32 µM) | 1.41 µg/mL (≈ 4.53 µM) | 1.33 µg/mL (≈ 4.27 µM) | 86.3 ± 1.2% | 89.2 ± 3.2% | –
COc1cc(/C=C/c2ccccc2)c(C(=O)O)c(OC(=O)NN)c1CC=C(C)C [Compound 29b, 2-Hydrazinoformyloxy-3-isopentenyl-4-methoxy-6-[(E)-styryl]benzoic acid] | 1.21 µg/mL (≈ 3.05 µM) | – | – | – | – | – | IC50 ([2]; read-out: COX-B6 IC50): 0.67 µg/mL (≈ 1.69 µM); EC50 [3]: 1.36 µg/mL (≈ 3.43 µM); IC50 [4]: 1.88 µg/mL (≈ 4.74 µM); viability at 10 µM [5]: 74.5 ± 4.6%; viability at 10 µM [6]: 78.9 ± 5.6%
COc1cc(/C=C/c2cc(OC)c(OC)c(OC)c2)cc(O)c1CC=C(C)C [Compound 10y, 2-isopentenyl-3-methoxy-5-[(E)-3,4,5-trimethoxystyryl]phenol] | 0.13 µg/mL (≈ 0.338 µM) | 2.58 µg/mL (≈ 6.71 µM) | 1.39 µg/mL (≈ 3.62 µM) | 1.66 µg/mL (≈ 4.32 µM) | 89.1 ± 5.4% | 89.5 ± 2.5% | anti-influenza virus activities compared with the lead compound cajanine [1]: significantly stronger than the lead compound cajanine
COC(=O)c1c(/C=C/c2ccncc2)cc(OC)c(CC=C(C)C)c1O [Compound 8r] | 4.65 µg/mL (≈ 13.2 µM) | 6.43 µg/mL (≈ 18.2 µM) | 3.14 µg/mL (≈ 8.88 µM) | 4.01 µg/mL (≈ 11.3 µM) | 74.5 ± 5.7% | 69.8 ± 8.4% | –
COc1cc(/C=C/c2cc(O)c(CC=C(C)C)c(OC)c2)nc(OC)c1 [10d′] | 0.14 µg/mL (≈ 0.394 µM) | 0.35 µg/mL (≈ 0.985 µM) | 0.65 µg/mL (≈ 1.83 µM) | 1.3 µg/mL (≈ 3.66 µM) | 91.2 ± 3.2% | 94.3 ± 5.4% | –
COc1cc(/C=C/c2ccncc2)cc(O)c1CC=C(C)C [Compound 10r, 2-isopentenyl-3-methoxy-5-[(E)-(pyrid-4-yl)ethenyl]phenol] | > 0.69 µg/mL | 3.23 µg/mL (≈ 10.9 µM) | 1.71 µg/mL (≈ 5.79 µM) | 1.73 µg/mL (≈ 5.86 µM) | 68.5 ± 2.4% | 58.4 ± 6.5% | –
2-isopentenyl-3-methoxy-5-[4′-methylcyclohexylene methyl]phenol [Compound 10n] | – | – | – | – | – | – | Influenza A virus (hanfang359/95) IC50 [1]: >0.69 µg/mL; COX-B6 IC50 [2]: >2.05 µg/mL; HCV EC50 [3, 8]: 0.89 µg/mL; HIV IC50 [4, 9]: 1.43 µg/mL; serum-deprived (surviving PC12 cells, MTT 570 nm) [5, 10]: 79.6 ± 2.8; rotenone (surviving PC12 cells, MTT 570 nm) [6, 11]: 78.6 ± 3.2
COc1ccc(/C=C/c2cc(O)c(CC=C(C)C)c(OC)c2)cc1 [Compound 10c, 2-isopentenyl-3-methoxy-5-[(E)-4′-methoxystyryl]phenol] | > 6.17 µg/mL | 2.35 µg/mL (≈ 7.24 µM) | 7.17 µg/mL (≈ 22.1 µM) | 0.35 µg/mL (≈ 1.08 µM) | 81.6 ± 2.6% | 80.3 ± 6.2% | protective effect on serum-deprived injury to PC12 cells [5]: the strongest activities; protective effect on rotenone injury to PC12 cells [6]: the strongest activities
COc1cc(/C=C(\C)c2cc(O)cc(O)c2)cc(OC)c1 [Compound 21g, 1,3-dimethoxy-5-[(E)-2-(3,5-dihydroxyphenyl)propen-1-yl]benzene] | 4.25 µg/mL (≈ 14.8 µM) | 6.84 µg/mL (≈ 23.9 µM) | 0.9 µg/mL (≈ 3.14 µM) | 1.27 µg/mL (≈ 4.44 µM) | 80.2 ± 1.5% | 82.3 ± 3.1% | –
